Earlier results in patent US9149436B2, “Pharmaceutical product comprising a sequestered agent” (Purdue Pharma L.P., priority 2003, dated 2015).

Details: after oral doses

Row | SMILES | duration of action [h]
1 | O=C1CC[C@@]2(O)[C@H]3Cc4ccc(O)c5c4[C@@]2(CCN3CC2CC2)[C@H]1O5 [naltrexone] | ~24
2 | C[C@H]1[C@H]2Cc3ccc(O)cc3[C@]1(C)CCN2CC1CC1 [cyclazocine] | ~24
